{"source": "patent US20220296535A1", "about": "“Antibacterial Dosage Regime Using Cannabinoids” (Botanix Pharmaceuticals Limited, priority 2019, published 2022)", "key": {"P. acnes ATCC 6919": {"system": "P. acnes ATCC 6919", "experiment": "Anaerobic MIC micro-broth dilution", "assay_type": "cell-based, Cutibacterium acnes (formerly Propionibacterium acnes)", "settings": "P. acnes ATCC 6919, anaerobic chamber, BHI, 48 h"}, "[1]": {"system": "S. aureus MRSA (106 strains)", "experiment": "MIC50/MIC90 micro-broth dilution, MRSA strains", "assay_type": "cell-based, Staphylococcus aureus", "settings": "for Staphylococcus aureus MRSA MIC distribution, number of strains: Table 19"}, "[2]": {"system": "Staphylococcus aureus MRSA ATCC 43300 biofilm", "experiment": "Biofilm minimum inhibitory concentration (Biofilm MIC), crystal violet OD590", "assay_type": "cell-based", "protocol": "The collaborator supplied sample as dry material. A stock solution at 10 mg/mL in neat DMSO (11.2 mg in 1.12 mL of DMSO) was prepared. The highest concentration tested in the assay was 128 μg/mL and 2% DMSO as a final concentration using 1/20 dilution to achieve these concentrations.\nBacteria (Staphylococcus aureus, ATCC 43300; MRSA) was cultured on Tryptic Soy Broth (TSB, BD, Cat. No. 211825) at 37° C. overnight, then it was diluted 1:100 in fresh TSB supplemented with 5% glucose. 100 μL were added across the 96-well of polystyrene (PS) (Corning; Cat. No. 3370) plate, leaving row H as media Control. Plates were incubated at 37° C. for 48 h to generate the biofilm. The plates were prepared in duplicate.\nThe antibiotic controls and CBD were serially diluted in TSB with 5% glucose two-fold across the wells of polystyrene (PS) 96-well plates (Corning; Cat. No. 3370), plated in duplicate. All plates had flat bottom wells and were covered with low-evaporation lids.\n48 h after incubation, bacteria plates were carefully washed three times with 200 μL/well of saline solution (0.9% NaCl, Baxter Healthcare; Cat. No. AHF7124) using manual pipette to remove the planktonic cells but leave the biofilm adhered to the plate wells. Then, 100 μL of diluted controls and CBD were transferred into the washed plates containing the biofilm. Then, these plates were incubated at 37° C. for 24 h.\nNext day, plates were washed three times with saline solution, then fixed with 100 μL/well of 99% methanol for 15 minutes. Once the biofilm was fixed, 100 μL/well 0.1% Crystal Violet Stain (Sigma; Cat No. C0775-25G) was added for 20 minutes and used as indicator of biofilm formation, followed by three times washing and dry well. To dissolve the crystal violet, 150 μL/well of methanol was added to allow for biofilm MIC analysis.\nThe biofilm formation was determined by optical density read at 590 nm (OD590). The percentage of biofilm formation was evaluated comparing the average, standard deviation and percentage of confidence of the media control (Row H) against the rest of the plate.\nAnalysis was performed using Microsoft Excel."}, "S. aureus ATCC 43300": {"system": "S. aureus ATCC 43300", "experiment": "Anaerobic MIC micro-broth dilution", "assay_type": "cell-based, Staphylococcus aureus", "settings": "S. aureus ATCC 43300, anaerobic chamber, BHI, 48 h"}, "C. granulosum ATCC 25564": {"system": "C. granulosum ATCC 25564", "experiment": "Anaerobic MIC micro-broth dilution", "assay_type": "cell-based, Cutibacterium granulosum", "settings": "C. granulosum ATCC 25564, anaerobic chamber, BHI, 48 h"}, "[3]": {"settings": "listed as Cannabidiol (Batch 2)"}}, "data": [{"smiles": "C=C(C)C1CCC(C)=CC1c1c(O)cc(CCCCC)cc1O", "note": "(centres unmarked) [Cannabidiol, 2-[3-methyl-6-(1-methylethenyl)-2-cyclohexen-1-yl]-5-pentyl-1,3-benzenediol]", "values": [{"measurement": "MIC", "setting": "P. acnes ATCC 6919; [3]", "value": "2/1"}, {"measurement": "MIC", "setting": "P. acnes ATCC 6919; listed as Cannabidiol (CBD)", "value": "active"}, {"measurement": "MIC50", "setting": "[1]; Staphylococcus aureus, S. aureus MRSA, read-out: MIC 50", "value": 2, "unit": "µg/mL"}, {"measurement": "MIC90", "setting": "[1]; Staphylococcus aureus, S. aureus MRSA, read-out: MIC 90", "value": 4, "unit": "µg/mL"}, {"measurement": "Staphylococcus aureus MRSA MIC distribution, number of strains", "setting": "[1]; MIC 0.015", "value": 0}, {"measurement": "Staphylococcus aureus MRSA MIC distribution, number of strains", "setting": "[1]; MIC 0.03", "value": 0}, {"measurement": "Staphylococcus aureus MRSA MIC distribution, number of strains", "setting": "[1]; MIC 0.06", "value": 0}, {"measurement": "Staphylococcus aureus MRSA MIC distribution, number of strains", "setting": "[1]; MIC 0.5", "value": 0}, {"measurement": "Staphylococcus aureus MRSA MIC distribution, number of strains", "setting": "[1]; MIC 1", "value": 4}, {"measurement": "Staphylococcus aureus MRSA MIC distribution, number of strains", "setting": "[1]; MIC 2", "value": 82}, {"measurement": "Staphylococcus aureus MRSA MIC distribution, number of strains", "setting": "[1]; MIC 4", "value": 18}, {"measurement": "Staphylococcus aureus MRSA MIC distribution, number of strains", "setting": "[1]; MIC 8", "value": 1}, {"measurement": "Staphylococcus aureus MRSA MIC distribution, number of strains", "setting": "[1]; MIC 16", "value": 0}, {"measurement": "Staphylococcus aureus MRSA MIC distribution, number of strains", "setting": "[1]; MIC 32", "value": 0}, {"measurement": "biofilm MIC", "setting": "[2]", "value": "1 to 2", "unit": "µg/mL"}, {"measurement": "biofilm MIC relative to standard vegetative cell MIC", "setting": "[2]", "value": "approximately four-fold"}, {"measurement": "inhibition of 48 h biofilm formation", "setting": "[2]; at 2 and 4 μg/mL", "value": "up to 75%"}, {"measurement": "Biofilm MIC (TSB + 5% Gluc) 07/112/18", "setting": "[2]; first biological replicate, two technical replicates, ≥70% inhibition OD590", "value": 4, "unit": "µg/mL"}, {"measurement": "Biofilm MIC (TSB + 5% Gluc) 14/112/18", "setting": "[2]; second biological replicate, two technical replicates, ≥70% inhibition OD590", "value": 2, "unit": "µg/mL"}, {"measurement": "MIC", "setting": "S. aureus ATCC 43300; [3]", "value": "2/1"}, {"measurement": "MIC", "setting": "S. aureus ATCC 43300; listed as Cannabidiol (CBD)", "value": "active"}, {"measurement": "MIC", "setting": "C. granulosum ATCC 25564; [3]", "value": "4/2"}, {"measurement": "MIC", "setting": "C. granulosum ATCC 25564; listed as Cannabidiol (CBD)", "value": "active"}]}]}
